The source made the active and inactive calls.
Tests used:
[1] = target: Hepatocyte growth factor receptor (Homo sapiens, UniProt P08581); test: Cellular mechanistic assay using […] cells and p-MET; assay type: cell-based, MKN-45
[2] = target: Calcium/calmodulin-dependent protein kinase type II subunit gamma (Homo sapiens) (UniProt Q13555); test: CaMKIIgamma (h) Millipore kinase activity assay; conditions: Compound concentration 1.0 uM
[3] = target: CDK7/Cyclin H/MNAT1 (Homo sapiens) (UniProt P51946+P50613+P51948); test: CDK7/cyclinH/MAT1 (h) Millipore kinase activity assay; assay type: protein-complex assay; conditions: Compound concentration 1.0 uM
[4] = target: Casein kinase I isoform gamma-2 (Homo sapiens) (UniProt P78368); test: CK1gamma2 (h) Millipore kinase activity assay; conditions: Compound concentration 1.0 uM
[5] = target: Ephrin type-B receptor 4 (Homo sapiens) (UniProt P54760); test: EphB4 (h) Millipore kinase activity assay; conditions: Compound concentration 1.0 uM
[6] = target: Fibroblast growth factor receptor 3 (Homo sapiens) (UniProt P22607); test: FGFR3 (h) Millipore kinase activity assay; conditions: Compound concentration 1.0 uM
[7] = target: Insulin receptor-related protein (Homo sapiens) (UniProt P14616); test: IRR (h) Millipore kinase activity assay; conditions: Compound concentration 1.0 uM
[8] = target: Interleukin-1 receptor-associated kinase 4 (Homo sapiens) (UniProt Q9NWZ3); test: IRAK4 (h) Millipore kinase activity assay; conditions: Compound concentration 1.0 uM
[9] = target: Dual specificity mitogen-activated protein kinase kinase 6 (Homo sapiens) (UniProt P52564); test: MKK6 (h) Millipore kinase activity assay; conditions: Compound concentration 1.0 uM
Chain of Dual specificity mitogen-activated protein kinase kinase 6 (Homo sapiens) (P52564 whole entry): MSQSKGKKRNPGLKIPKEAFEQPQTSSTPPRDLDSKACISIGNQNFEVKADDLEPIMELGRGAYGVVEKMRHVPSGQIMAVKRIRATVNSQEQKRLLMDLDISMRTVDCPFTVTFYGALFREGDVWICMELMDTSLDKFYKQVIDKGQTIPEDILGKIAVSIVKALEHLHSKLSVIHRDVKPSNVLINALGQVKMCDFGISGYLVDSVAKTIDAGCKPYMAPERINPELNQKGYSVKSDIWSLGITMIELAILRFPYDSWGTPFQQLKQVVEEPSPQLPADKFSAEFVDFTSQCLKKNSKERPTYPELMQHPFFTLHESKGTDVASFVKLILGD

[10] = target: RAC-beta serine/threonine-protein kinase (Homo sapiens) (UniProt P31751); test: PKBbeta (h) Millipore kinase activity assay; conditions: Compound concentration 1.0 uM
Rattus norvegicus [11] = species: Rattus norvegicus; test: Testosterone Eurofins-Panlabs radioligand binding assay; set-up: ligand concentration 1.5 nM; conditions: Compound concentration 10.0 uM
Rattus norvegicus [12] = species: Rattus norvegicus; test: Inhibition of Glutamate, NMDA, Phencyclidine at 10 µM in the Eurofins-Panlabs radioligand binding assay (Eurofins_assay_233000); assay type: protein-complex assay; conditions: Compound concentration 10.0 uM
[13] = target: B2 bradykinin receptor (Homo sapiens) (UniProt P30411); conditions: Compound concentration 10.0 uM
[14] = target: Delta-type opioid receptor (Homo sapiens) (UniProt P41143); conditions: Compound concentration 10.0 uM
[15] = target: Phosphorylase b kinase gamma catalytic chain, liver/testis isoform (Homo sapiens) (UniProt P15735); test: PhKgamma2 (h) Millipore kinase activity assay; conditions: Compound concentration 1.0 uM
[16] = test system: Tyrosine-protein kinase ABL1 (Homo sapiens), P00519 [F317I]; conditions: Compound concentration 1000.0 nM
[17] = target: RAC-alpha serine/threonine-protein kinase (Homo sapiens) (UniProt P31749); conditions: Compound concentration 1000.0 nM
[18] = target: Tyrosine-protein kinase Blk (Homo sapiens) (UniProt P51451); conditions: Compound concentration 1000.0 nM
Chain of Tyrosine-protein kinase Blk (Homo sapiens) (P51451 2-505 limits assumed): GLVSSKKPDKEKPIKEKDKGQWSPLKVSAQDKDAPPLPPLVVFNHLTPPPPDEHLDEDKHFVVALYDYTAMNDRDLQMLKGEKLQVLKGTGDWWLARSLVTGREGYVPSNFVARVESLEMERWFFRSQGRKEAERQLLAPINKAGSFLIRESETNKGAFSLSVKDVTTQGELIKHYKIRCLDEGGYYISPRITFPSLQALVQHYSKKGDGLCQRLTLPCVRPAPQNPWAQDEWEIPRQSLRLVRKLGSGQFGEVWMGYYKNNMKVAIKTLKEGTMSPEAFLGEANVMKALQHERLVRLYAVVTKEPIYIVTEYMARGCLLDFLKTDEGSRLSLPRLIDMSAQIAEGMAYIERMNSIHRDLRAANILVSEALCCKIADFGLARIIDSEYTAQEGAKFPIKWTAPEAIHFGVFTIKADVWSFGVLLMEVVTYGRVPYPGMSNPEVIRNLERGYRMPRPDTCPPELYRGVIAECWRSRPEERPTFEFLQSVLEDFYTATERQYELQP

[19] = target: Bone morphogenetic protein receptor type-1A (Homo sapiens) (UniProt P36894); conditions: Compound concentration 1000.0 nM
[20] = target: Macrophage colony-stimulating factor 1 receptor (Homo sapiens) (UniProt P07333); conditions: Compound concentration 1000.0 nM
Chain of Macrophage colony-stimulating factor 1 receptor (Homo sapiens) (P07333 whole entry): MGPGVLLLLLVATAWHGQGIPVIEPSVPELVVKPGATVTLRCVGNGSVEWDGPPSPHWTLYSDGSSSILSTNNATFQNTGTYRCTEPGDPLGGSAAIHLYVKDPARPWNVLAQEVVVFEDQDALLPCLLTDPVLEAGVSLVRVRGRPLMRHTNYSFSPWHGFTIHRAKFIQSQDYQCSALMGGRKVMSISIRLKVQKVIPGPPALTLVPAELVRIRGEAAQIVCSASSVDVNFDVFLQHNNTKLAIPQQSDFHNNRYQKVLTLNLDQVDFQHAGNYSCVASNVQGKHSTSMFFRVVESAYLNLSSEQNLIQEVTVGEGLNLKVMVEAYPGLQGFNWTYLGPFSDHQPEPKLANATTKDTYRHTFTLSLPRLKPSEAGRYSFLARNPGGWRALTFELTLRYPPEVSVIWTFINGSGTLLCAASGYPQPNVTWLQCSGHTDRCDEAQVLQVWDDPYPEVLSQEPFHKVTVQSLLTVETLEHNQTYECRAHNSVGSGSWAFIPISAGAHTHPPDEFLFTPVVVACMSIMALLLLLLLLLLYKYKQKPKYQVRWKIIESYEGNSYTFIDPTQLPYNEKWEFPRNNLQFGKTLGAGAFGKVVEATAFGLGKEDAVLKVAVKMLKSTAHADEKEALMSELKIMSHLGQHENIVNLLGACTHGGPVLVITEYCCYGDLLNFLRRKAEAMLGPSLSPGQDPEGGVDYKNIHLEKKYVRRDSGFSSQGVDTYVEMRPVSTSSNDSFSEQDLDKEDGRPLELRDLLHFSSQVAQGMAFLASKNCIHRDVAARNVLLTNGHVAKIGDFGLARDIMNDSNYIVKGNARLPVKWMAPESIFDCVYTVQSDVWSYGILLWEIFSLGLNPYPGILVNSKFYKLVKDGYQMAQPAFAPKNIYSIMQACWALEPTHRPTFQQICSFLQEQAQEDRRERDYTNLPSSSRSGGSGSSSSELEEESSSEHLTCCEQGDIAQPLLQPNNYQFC

[21] = target: Serine/threonine-protein kinase MRCK gamma (Homo sapiens) (UniProt Q6DT37); conditions: Compound concentration 1000.0 nM
[22] = test system: Epidermal growth factor receptor (Homo sapiens), P00533 [UNDEFINED MUTATION]; conditions: Compound concentration 1000.0 nM
[23] = target: Mitogen-activated protein kinase 7 (Homo sapiens) (UniProt Q13164); conditions: Compound concentration 1000.0 nM
[24] = target: Mitogen-activated protein kinase 15 (Homo sapiens) (UniProt Q8TD08); conditions: Compound concentration 1000.0 nM
[25] = test system: Receptor-type tyrosine-protein kinase FLT3 (Homo sapiens), P36888 [N841I]; conditions: Compound concentration 1000.0 nM
[26] = target: Interleukin-1 receptor-associated kinase 1 (Homo sapiens) (UniProt P51617); conditions: Compound concentration 1000.0 nM
Chain of Interleukin-1 receptor-associated kinase 1 (Homo sapiens) (P51617 whole entry, looked up): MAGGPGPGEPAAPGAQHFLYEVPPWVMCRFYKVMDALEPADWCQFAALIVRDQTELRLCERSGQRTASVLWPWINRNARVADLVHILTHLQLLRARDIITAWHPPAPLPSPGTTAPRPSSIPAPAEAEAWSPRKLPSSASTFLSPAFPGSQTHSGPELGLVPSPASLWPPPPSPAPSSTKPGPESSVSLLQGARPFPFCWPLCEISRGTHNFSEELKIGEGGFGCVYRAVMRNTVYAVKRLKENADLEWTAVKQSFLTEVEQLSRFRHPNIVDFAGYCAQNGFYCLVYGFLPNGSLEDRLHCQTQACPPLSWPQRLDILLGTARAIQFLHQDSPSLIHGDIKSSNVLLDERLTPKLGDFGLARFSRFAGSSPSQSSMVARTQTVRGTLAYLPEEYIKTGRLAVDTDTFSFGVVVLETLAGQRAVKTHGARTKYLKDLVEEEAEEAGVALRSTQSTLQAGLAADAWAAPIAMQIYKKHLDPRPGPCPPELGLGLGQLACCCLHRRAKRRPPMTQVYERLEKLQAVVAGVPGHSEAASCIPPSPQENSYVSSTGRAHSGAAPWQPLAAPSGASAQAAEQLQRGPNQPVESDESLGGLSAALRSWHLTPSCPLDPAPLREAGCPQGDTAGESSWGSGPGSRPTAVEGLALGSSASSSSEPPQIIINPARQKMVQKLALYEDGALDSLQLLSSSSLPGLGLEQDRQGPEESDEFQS

[27] = target: Tyrosine-protein kinase JAK1 (Homo sapiens) (UniProt P23458); conditions: Compound concentration 1000.0 nM
[28] = test system: Mast/stem cell growth factor receptor Kit (Homo sapiens), P10721 [V559D,T670I]; conditions: Compound concentration 1000.0 nM
[29] = target: Serine/threonine-protein kinase LATS1 (Homo sapiens) (UniProt O95835); conditions: Compound concentration 1000.0 nM
[30] = target: Mitogen-activated protein kinase kinase kinase kinase 4 (Homo sapiens) (UniProt O95819); conditions: Compound concentration 1000.0 nM
[31] = target: Serine/threonine-protein kinase MARK1 (Homo sapiens) (UniProt Q9P0L2); conditions: Compound concentration 1000.0 nM
[32] = target: Dual specificity mitogen-activated protein kinase kinase 6 (Homo sapiens) (UniProt P52564); conditions: Compound concentration 1000.0 nM
[33] = target: Serine/threonine-protein kinase Nek4 (Homo sapiens) (UniProt P51957); conditions: Compound concentration 1000.0 nM
[34] = target: Serine/threonine-protein kinase PAK 5 (Homo sapiens) (UniProt Q9P286); conditions: Compound concentration 1000.0 nM
[35] = target: Cyclin-dependent kinase 16 (Homo sapiens) (UniProt Q00536); conditions: Compound concentration 1000.0 nM
[36] = target: Platelet-derived growth factor receptor beta (Homo sapiens) (UniProt P09619); conditions: Compound concentration 1000.0 nM
Chain of Platelet-derived growth factor receptor beta (Homo sapiens) (P09619 whole entry): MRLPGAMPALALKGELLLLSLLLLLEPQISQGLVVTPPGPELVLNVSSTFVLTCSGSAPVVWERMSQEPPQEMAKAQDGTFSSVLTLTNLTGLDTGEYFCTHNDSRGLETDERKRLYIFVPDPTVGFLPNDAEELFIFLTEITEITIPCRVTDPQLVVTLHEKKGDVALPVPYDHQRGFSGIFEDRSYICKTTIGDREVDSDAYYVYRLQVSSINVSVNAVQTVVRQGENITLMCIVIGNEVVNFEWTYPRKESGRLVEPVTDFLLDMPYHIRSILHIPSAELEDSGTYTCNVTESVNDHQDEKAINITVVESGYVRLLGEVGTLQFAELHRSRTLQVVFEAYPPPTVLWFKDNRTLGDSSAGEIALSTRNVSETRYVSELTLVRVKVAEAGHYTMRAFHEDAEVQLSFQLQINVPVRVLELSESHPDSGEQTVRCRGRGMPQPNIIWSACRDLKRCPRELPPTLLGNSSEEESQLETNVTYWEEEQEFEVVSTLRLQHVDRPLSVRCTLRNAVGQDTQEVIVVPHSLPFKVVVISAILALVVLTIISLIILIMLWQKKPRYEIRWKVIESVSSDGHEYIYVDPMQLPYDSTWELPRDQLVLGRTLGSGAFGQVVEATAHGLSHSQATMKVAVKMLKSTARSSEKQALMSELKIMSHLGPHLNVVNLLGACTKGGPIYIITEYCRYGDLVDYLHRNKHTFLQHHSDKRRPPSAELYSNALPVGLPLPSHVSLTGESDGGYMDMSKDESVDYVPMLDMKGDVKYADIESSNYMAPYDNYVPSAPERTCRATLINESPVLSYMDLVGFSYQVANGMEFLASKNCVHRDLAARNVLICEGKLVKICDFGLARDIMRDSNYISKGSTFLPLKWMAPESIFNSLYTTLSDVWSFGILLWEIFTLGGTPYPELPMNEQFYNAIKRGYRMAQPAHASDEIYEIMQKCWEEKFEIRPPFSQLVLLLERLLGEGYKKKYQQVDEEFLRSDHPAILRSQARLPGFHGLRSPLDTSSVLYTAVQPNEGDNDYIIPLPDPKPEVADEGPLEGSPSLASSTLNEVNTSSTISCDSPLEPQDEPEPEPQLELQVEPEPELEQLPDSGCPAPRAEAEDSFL

[37] = target: Serine/threonine-protein kinase pim-3 (Homo sapiens) (UniProt Q86V86); conditions: Compound concentration 1000.0 nM
[38] = target: Serine/threonine-protein kinase RIO2 (Homo sapiens) (UniProt Q9BVS4); conditions: Compound concentration 1000.0 nM
[39] = target: Rho-associated protein kinase 2 (Homo sapiens) (UniProt O75116); conditions: Compound concentration 1000.0 nM
[40] = target: Proto-oncogene tyrosine-protein kinase ROS (Homo sapiens) (UniProt P08922); conditions: Compound concentration 1000.0 nM
[41] = target: Serine/threonine-protein kinase Sgk1 (Homo sapiens) (UniProt O00141); conditions: Compound concentration 1000.0 nM
[42] = target: SNF-related serine/threonine-protein kinase (Homo sapiens) (UniProt Q9NRH2); conditions: Compound concentration 1000.0 nM
[43] = target: Serine/threonine-protein kinase 16 (Homo sapiens) (UniProt O75716); conditions: Compound concentration 1000.0 nM
Chain of Serine/threonine-protein kinase 16 (Homo sapiens) (O75716 whole entry): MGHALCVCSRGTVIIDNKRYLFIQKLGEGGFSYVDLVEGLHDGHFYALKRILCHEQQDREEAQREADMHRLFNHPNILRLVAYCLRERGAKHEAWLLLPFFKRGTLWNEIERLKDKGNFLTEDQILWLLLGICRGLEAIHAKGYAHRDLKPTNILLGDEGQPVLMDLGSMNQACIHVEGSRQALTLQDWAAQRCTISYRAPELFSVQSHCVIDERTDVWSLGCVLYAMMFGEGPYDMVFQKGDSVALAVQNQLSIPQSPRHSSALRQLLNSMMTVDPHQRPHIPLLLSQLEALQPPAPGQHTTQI

[44] = target: Serine/threonine-protein kinase 36 (Homo sapiens) (UniProt Q9NRP7); conditions: Compound concentration 1000.0 nM
[45] = target: Tyrosine-protein kinase receptor Tie-1 (Homo sapiens) (UniProt P35590); conditions: Compound concentration 1000.0 nM
Chain of Tyrosine-protein kinase receptor Tie-1 (Homo sapiens) (P35590 whole entry): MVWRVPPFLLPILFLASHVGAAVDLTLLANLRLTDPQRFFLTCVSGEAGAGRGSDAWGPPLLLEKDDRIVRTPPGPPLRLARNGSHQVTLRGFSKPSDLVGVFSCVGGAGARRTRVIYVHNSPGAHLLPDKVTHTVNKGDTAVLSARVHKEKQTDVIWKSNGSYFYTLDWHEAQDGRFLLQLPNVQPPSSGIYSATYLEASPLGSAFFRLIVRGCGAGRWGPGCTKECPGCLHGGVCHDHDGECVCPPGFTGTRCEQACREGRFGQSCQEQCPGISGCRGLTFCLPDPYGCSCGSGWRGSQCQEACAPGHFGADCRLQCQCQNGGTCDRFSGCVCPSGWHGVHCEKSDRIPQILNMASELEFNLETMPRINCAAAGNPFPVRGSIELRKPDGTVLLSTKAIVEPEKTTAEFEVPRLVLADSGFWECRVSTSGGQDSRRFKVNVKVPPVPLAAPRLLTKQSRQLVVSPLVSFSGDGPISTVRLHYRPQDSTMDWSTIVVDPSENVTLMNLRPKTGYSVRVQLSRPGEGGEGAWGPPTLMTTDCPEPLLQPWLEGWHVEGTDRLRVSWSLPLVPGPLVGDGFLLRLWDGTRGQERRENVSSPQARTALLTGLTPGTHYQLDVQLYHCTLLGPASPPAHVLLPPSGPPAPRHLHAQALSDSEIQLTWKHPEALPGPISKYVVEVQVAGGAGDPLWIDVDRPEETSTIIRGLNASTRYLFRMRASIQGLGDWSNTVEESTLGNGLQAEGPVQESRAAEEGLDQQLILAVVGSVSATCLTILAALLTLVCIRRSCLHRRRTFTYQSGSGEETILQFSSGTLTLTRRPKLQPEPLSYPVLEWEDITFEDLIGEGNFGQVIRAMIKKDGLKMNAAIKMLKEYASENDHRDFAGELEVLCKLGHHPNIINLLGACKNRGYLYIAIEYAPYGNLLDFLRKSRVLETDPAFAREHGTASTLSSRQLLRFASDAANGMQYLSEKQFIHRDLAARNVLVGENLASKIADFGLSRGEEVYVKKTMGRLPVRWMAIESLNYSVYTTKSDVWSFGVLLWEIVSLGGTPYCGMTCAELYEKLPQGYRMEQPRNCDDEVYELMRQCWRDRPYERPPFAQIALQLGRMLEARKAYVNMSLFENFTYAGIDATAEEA

CC1=C(C#N)C(c2ccc3[nH]nc(C)c3c2)C(C#N)=C(C)N1 [BAY-474]
inactive: inhibition [2] 2% | inhibition [3] -1% | inhibition [4] 19% | inhibition [5] -4% | inhibition [6] 10% | inhibition [7] 2% | inhibition [8] 0% | inhibition [9] 5% | inhibition [10] -5% | inhibition (Rattus norvegicus [11]) 12% | inhibition (Rattus norvegicus [12]) 4% | inhibition [13] -10% | inhibition [14] 9% | inhibition [15] -10%
active: IC50 [1] 2.9 nM

CC1=C(C#N)[C@@H](c2ccc3[nH]nc(C)c3c2)C(C#N)=C(c2ccc(Cl)cc2)N1 [BAY-827]
active: residual activity [27] 38.2%
inactive: residual activity [16] 100% | residual activity [17] 100% | residual activity [18] 100% | residual activity [19] 98.6% | residual activity [20] 100% | residual activity [21] 93.6% | residual activity [22] 100% | residual activity [23] 90% | residual activity [24] 100% | residual activity [25] 100% | residual activity [26] 100% | residual activity [28] 84.4% | residual activity [29] 100% | residual activity [30] 100% | residual activity [31] 91.1% | residual activity [32] 100% | residual activity [33] 90.1% | residual activity [34] 100% | residual activity [35] 88.9% | residual activity [36] 100% | residual activity [37] 100% | residual activity [38] 100% | residual activity [39] 91.9% | residual activity [40] 100% | residual activity [41] 100% | residual activity [42] 100% | residual activity [43] 100% | residual activity [44] 95.9% | residual activity [45] 76.4%

— ChEMBL document CHEMBL4507263, “Data for DCP probe BAY-474” (2021)
